Measurements from patent US20230055705A1, “SUBSTITUTED THIOPHENE CARBOXAMIDES AND DERIVATIVES THEREOF” (Bayer Aktiengesellschaft, priority 2019, published 2023).

Experiments:
[1] = test system: Xanthomonas campestris pv. campestris; assay: In vivo preventive test on Xanthomonas campestris pv. campestris (black rot on cabbage); conditions: evaluated 8 or 10 days after inoculation, read-out: efficacy; for pest or weed control at 125 ppm: 125 ppm of active ingredient; for pest or weed control at 31 ppm: 31 ppm of active ingredient
Protocol: The tested active ingredients were prepared by homogenization in a mixture of acetone/Dimethyl sulfoxide/Tween®, and then diluted with water to obtain the desired active material concentration.
The young plants of cabbage were treated by spraying the active ingredient prepared as described above. Control plants were treated only with an aqueous solution of acetone/Dimethyl sulfoxide/Tween®.
After 72 hours, the plants were contaminated by spraying the leaves with an aqueous bacteria suspension of Xanthomonas campestris pv. campestris. The contaminated cabbage plants were incubated for 8 or 10 days at 27° C. at 95% relative humidity.
The test was evaluated 8 or 10 days after the inoculation. 0% means an efficacy which corresponds to that of the control plants while an efficacy of 100% means that no disease was observed. […]
Compounds CMP1, CMP2, CMP3 and CMP4 were tested in an in vivo preventive test on Xanthomonas campestris pv. campestris (black rot on cabbage) in the same conditions as described in Example H.

[2] = test system: Pseudomonas syringae pv. tomato; assay: In vivo preventive test on Pseudomonas syringae pv. tomato (bacterial speck on tomato); conditions: evaluated 5 or 6 days after inoculation, read-out: efficacy; for pest or weed control at 31 ppm: 31 ppm of active ingredient; for pest or weed control at 500 ppm: 500 ppm of active ingredient
Protocol: The tested active ingredients were prepared by homogenization in a mixture of acetone/Dimethyl sulfoxide/Tween®, and then diluted with water to obtain the desired active material concentration. The young plants of tomato were treated by spraying the active ingredient prepared as described above. Control plants were treated only with an aqueous solution of acetone/Dimethyl sulfoxide/Tween®.
After 72 hours, the plants were contaminated by spraying the leaves with an aqueous bacteria suspension of Pseudomonas syringae pv. tomato. The contaminated tomato plants were incubated for 4 days in saturated atmosphere at 22° C. day/20° C. night—70% HR and then for 1 or 2 days at 22° C. day/20° C. night at 70-80% relative humidity.
The test was evaluated 5 or 6 days after the inoculation. 0% means an efficacy which corresponds to that of the control plants while an efficacy of 100% means that no disease was observed.
Compounds CMP1 and CMP4 were tested in an in vivo preventive test on Pseudomonas syringae pv. tomato (bacterial speck on tomato) in the same conditions as described in Example J.

Uromyces appendiculatus = assay: In vivo preventive test on Uromyces appendiculatus (bean rust); conditions: 240 h, evaluated 10 days after inoculation, read-out: efficacy; for pest or weed control at 500 ppm: 500 ppm of active ingredient; for pest or weed control at 125 ppm: 125 ppm of active ingredient
Protocol: (§1) The tested active ingredients were prepared by homogenization in a mixture of acetone/Dimethyl sulfoxide/Tween®, and then diluted with water to obtain the desired active material concentration. The young plants of bean were treated by spraying the active ingredient prepared as described above. Control plants were treated only with an aqueous solution of acetone/Dimethyl sulfoxide/Tween®.
After 72 hours, the plants were contaminated by spraying the leaves with an aqueous suspension of Uromyces appendiculatus spores. The contaminated bean plants were incubated for 24 hours at 20° C. and at 100% relative humidity and then for 9 days at 20° C. and at 70-80% relative humidity. The test was evaluated 10 days after the inoculation. 0% means an efficacy which corresponds to that of the control plants while an efficacy of 100% means that no disease was observed.
Compounds CMP5 and CMP6 were tested in an in vivo preventive test on Uromyces appendiculatus (bean rust) in the same conditions as described in Example I.

[3] = test system: Colletotrichum lindemuthianum; assay: In vivo preventive test on Colletotrichum lindemuthianum (Antrachnose on bean); conditions: 144 h, inoculation 72 h after spraying, evaluated 6 days after inoculation, read-out: efficacy; for pest or weed control at 500 ppm: 500 ppm of active ingredient
Protocol: as §1
After 72 hours, the plants were contaminated by spraying the leaves with an aqueous suspension of Colletotrichum lindemuthianum spores. The contaminated bean plants were incubated for 24 hours at 20° C. and at 100% relative humidity and then for 5 days at 20° C. and at 90% relative humidity. The test was evaluated 6 days after the inoculation. 0% means an efficacy which corresponds to that of the control plants while an efficacy of 100% means that no disease was observed.
Compound CMP1 was tested in an in vivo preventive test on Colletotrichum lindemuthianum (Antrachnose on bean) in the same conditions as described in Example F.

[4] = test system: salicylate responsive promoter sequence of the PR1 (pathogenesis-related protein I) gene (AT2G14610); assay: Induction of defense gene expression in Arabidopsis thaliana (PR1 promoter-GFP reporter plants); type: in vivo; conditions: 3rd day after spraying, mock treated leaves set as 1.00; for fold induction at 75 ppm / fold induction at 300 ppm: Arabidopsis thaliana, 72 h, read-out: relative fluorescence value; for fold induction at 75 ppm: 75 ppm of compound
Protocol: Arabidopsis thaliana reporter plants containing the coding sequence of a green fluorescent protein (GFP) linked to the salicylate responsive promoter sequence of the PR1 (pathogenesis-related protein I) gene (AT2G14610) were grown for five days and then sprayed with compounds. On the 3rd day after spraying, plant fluorescence was assessed with a MacroFluo instrument from Leica Microsystems (Wetzlar, Germany). Fluorescences were quantified with the Meta-Morph Microscopy Automation & Image Analysis Software (Molecular Devices, Sunnyvale, Calif., United States). Background fluorescence in mock treated leaves was set as 1.00.

[5] = LogP by HPLC on reversed phase columns (EEC directive 79/831 Annex V.A8); type: physicochemical; conditions: for chromatographic logP: reversed phase HPLC columns
Protocol: In the above tables, measurement of LogP values was performed according to EEC directive 79/831 Annex V.A8 by HPLC (High Performance Liquid Chromatography) on reversed phase columns with the following methods: • ^[a]
Calibration was done with straight-chain alkan2-ones (with 3 to 16 carbon atoms) with known LogP values (measurement of LogP values using retention times with linear interpolation between successive alkanones). Lambda-max-values were determined using UV-spectra from 200 nm to 400 nm and the peak values of the chromatographic signals.

Peronospora parasitica = assay: In vivo preventive test on Peronospora parasitica (Crucifer downy mildew); conditions: cabbage, evaluated 5 days after inoculation; for pest or weed control at 31 ppm / pest or weed control at 125 ppm / pest or weed control at 500 ppm: Hyaloperonospora parasitica, in Brassica oleracea, 120 h, read-out: efficacy; for pest or weed control at 31 ppm: 31 ppm of active ingredient; for pest or weed control at 125 ppm: 125 ppm of active ingredient
Protocol: The tested active ingredients were prepared by homogenization in a mixture of acetone/Dimethyl sulfoxide/Tween®, and then diluted with water to obtain the desired active material concentration. The young plants of cabbage were treated by spraying the active ingredient prepared as described above. Control plants were treated only with an aqueous solution of acetone/Dimethyl sulfoxide/Tween®.
After 72 hours, the plants were contaminated by spraying the leaves with an aqueous suspension of Peronospora parasitica spores. The contaminated cabbage plants were incubated for 5 days at 20° C. and at 100% relative humidity.
The test was evaluated 5 days after the inoculation. 0% means an efficacy which corresponds to that of the control plants while an efficacy of 100% means that no disease was observed.
Compounds CMP2 and CMP3 were tested in an in vivo preventive test on Peronospora parasitica (Crucifer downy mildew) in the same conditions as described in Example G.

[6] = method [a]: LC-UV, in an acidic range, with 0.1% formic acid in water and acetonitrile as eluent (linear gradient from 10% to 95% acetonitrile)

Compound: COC(=O)[C@@H](NC(=O)c1sc(Cl)c(Cl)c1Cl)C(C)C [CMP4, reference compound]
- pest or weed control at 125 ppm [1]: 0%
- pest or weed control at 31 ppm [2]: 0%

Compound: CC(C)[C@H](NC(=O)c1sc(Cl)c(Cl)c1Cl)C(=O)O [CMP5, reference compound]
- pest or weed control at 8 ppm (Uromyces appendiculatus; 8 ppm): < 20%

Compound: CCOC(=O)[C@@H](NC(=O)c1sc(Cl)c(Cl)c1Cl)C(C)C [CMP6, reference compound]
- pest or weed control at 500 ppm (Uromyces appendiculatus): < 40%

Compound: CCSC(=O)[C@H](C)NC(=O)c1sc(Cl)c(Cl)c1Cl [I.089]
- pest or weed control at 500 ppm [3]: 90 to 100%
- fold induction at 75 ppm [4]: > 2
- fold induction at 300 ppm ([4]; 300 ppm): > 2
- chromatographic logP [5, 6]: 4.4
- pest or weed control at 31 ppm [2]: 90 to 100%
- pest or weed control at 500 ppm [2]: 90 to 100%
- pest or weed control at 125 ppm (Uromyces appendiculatus): 90 to 100%
- pest or weed control at 500 ppm (Uromyces appendiculatus): 90 to 100%
- pest or weed control at 31 ppm (Peronospora parasitica): 90 to 100%
- pest or weed control at 125 ppm (Peronospora parasitica): 90 to 100%
- pest or weed control at 500 ppm (Peronospora parasitica; 500 ppm of active ingredient): 90 to 100%

Compound: CNC(=O)[C@H](C)NC(=O)c1sc(Cl)c(Cl)c1Cl [I.091]
- pest or weed control at 500 ppm [3]: 70 to 79%
- fold induction at 300 ppm ([4]; 300 ppm): > 2
- chromatographic logP [5, 6]: 2.35
- pest or weed control at 125 ppm (Uromyces appendiculatus): 80 to 89%
- pest or weed control at 500 ppm (Uromyces appendiculatus): 70 to 79%
- pest or weed control at 31 ppm (Peronospora parasitica): 90 to 100%
- pest or weed control at 125 ppm (Peronospora parasitica): 90 to 100%
- pest or weed control at 500 ppm (Peronospora parasitica; 500 ppm of active ingredient): 90 to 100%

Compound: CCSC(=O)[C@@H](NC(=O)c1sc(Cl)c(Cl)c1Cl)C(C)C [I.094]
- fold induction at 300 ppm ([4]; 300 ppm): > 2
- pest or weed control at 500 ppm [2]: 80 to 89%
- pest or weed control at 500 ppm (Uromyces appendiculatus): 90 to 100%
- pest or weed control at 500 ppm (Peronospora parasitica; 500 ppm of active ingredient): 90 to 100%

Compound: CNC(=O)[C@@H](NC(=O)c1sc(Cl)c(Cl)c1Cl)C(C)C [I.096]
- pest or weed control at 125 ppm [1]: 80 to 89%
- chromatographic logP [5, 6]: 2.97

Compound: NC(=S)CNC(=O)c1sc(Cl)c(Cl)c1Cl [I.104, N-(2-amino-2-sulfanylideneethyl)-3,4,5-trichlorothiophene-2-carboxamide]
- pest or weed control at 500 ppm [3]: 80 to 89%
- fold induction at 75 ppm [4]: > 2
- fold induction at 300 ppm ([4]; 300 ppm): > 2
- chromatographic logP ([5]; given in the preparation examples, method not marked): 2.53
- chromatographic logP [5, 6]: 2.53
- pest or weed control at 31 ppm [2]: 70 to 79%
- pest or weed control at 500 ppm [2]: 80 to 89%
- pest or weed control at 125 ppm (Uromyces appendiculatus): 70 to 79%
- pest or weed control at 500 ppm (Uromyces appendiculatus): 90 to 100%
- pest or weed control at 31 ppm (Peronospora parasitica): 90 to 100%
- pest or weed control at 125 ppm (Peronospora parasitica): 90 to 100%
- pest or weed control at 500 ppm (Peronospora parasitica; 500 ppm of active ingredient): 90 to 100%

Compound: CCOC(=O)C(C)N(C(=O)c1sc(Cl)c(Cl)c1Cl)C1CC1 (stereo not drawn) [I.110]
- pest or weed control at 31 ppm [1]: 70 to 79%
- pest or weed control at 125 ppm [1]: 70 to 79%
- chromatographic logP [5, 6]: 4.23
- pest or weed control at 125 ppm (Uromyces appendiculatus): 70 to 79%
- pest or weed control at 500 ppm (Uromyces appendiculatus): 90 to 100%
- pest or weed control at 500 ppm (Peronospora parasitica; 500 ppm of active ingredient): 70 to 79%

Compound: CCOC(=O)[C@H](C)NC(=S)c1sc(Cl)c(Cl)c1Cl [I.118]
- LogP [5]: 5.21^[a]
- efficacy (Peronospora parasitica; 500 ppm of active ingredient): 70%

Compound: CCNC(=O)[C@H](C)NC(=O)c1sc(Cl)c(Cl)c1Cl [I.120]
- pest or weed control at 31 ppm ([3]; 31 ppm of active ingredient): 70 to 79%
- pest or weed control at 500 ppm [3]: 90 to 100%
- fold induction at 75 ppm [4]: > 2
- fold induction at 300 ppm ([4]; 300 ppm): > 2
- pest or weed control at 31 ppm [1]: 80 to 89%
- chromatographic logP [5, 6]: 2.75
- pest or weed control at 125 ppm (Uromyces appendiculatus): 90 to 100%
- pest or weed control at 500 ppm (Uromyces appendiculatus): 90 to 100%
- pest or weed control at 31 ppm (Peronospora parasitica): 90 to 100%
- pest or weed control at 125 ppm (Peronospora parasitica): 90 to 100%
- pest or weed control at 500 ppm (Peronospora parasitica; 500 ppm of active ingredient): 90 to 100%

Compound: N#CC1(NC(=O)c2sc(Cl)c(Cl)c2Cl)CCC(c2ccccc2)CC1 (stereo not drawn) [I.131]
- LogP [5]: 5.00^[a]

Compound: CC(C)(C#N)NC(=O)c1sc(Cl)c(Cl)c1Cl [I.132]
- LogP [5]: 3.19^[a]

Compound: N#CC1(NC(=O)c2sc(Cl)c(Cl)c2Cl)CCSCC1 [I.133]
- LogP [5]: 3.72^[a]

Compound: N#CC1(NC(=O)c2sc(Cl)c(Cl)c2Cl)CCC(C2CCCCC2)CC1 (stereo not drawn) [I.134]
- LogP [5]: 6.41^[a]

Compound: COC(=O)CC(C)NC(=O)c1sc(Cl)c(Cl)c1Cl (stereo not drawn) [I.135]
- LogP [5]: 3.64^[a]

Compound: CCNC(=O)SC[C@H](NC(=O)c1sc(Cl)c(Cl)c1Cl)C(=O)OC [I.141]
- LogP [5]: 3.36^[a]

Compound: O=C(CNC(=O)c1sc(Cl)c(Cl)c1Cl)NO [I.148]
- LogP [5]: 1.70^[a]

Compound: CC(C)OC(=O)C1(NC(=O)c2sc(Cl)c(Cl)c2Cl)CCC1 [I.150]
- LogP [5]: 4.74^[a]

Compound: O=C(O)c1ccccc1O [Salicylic acid, reference compound]
- relative fluorescence value ([4]; 300 ppm): 2.70
